From ChEMBL document CHEMBL1201862, “PubChem BioAssay data set” (2004)
Active and inactive are the calls of the source. No stated cut-off is given here; in the data, actives have a measured IC50 and inactives only a lower limit.

Molecular target: Envelope glycoprotein gp160 (Human immunodeficiency virus 1, UniProt Q6QLK5)
Experiment: inhibitors of HIV fusion peptide binding, primary screen, biochemical, uHTS, fluorescence dequenching (AID 1986)

Sequence of Envelope glycoprotein gp160 (Q6QLK5 whole entry, the tested form may be a part): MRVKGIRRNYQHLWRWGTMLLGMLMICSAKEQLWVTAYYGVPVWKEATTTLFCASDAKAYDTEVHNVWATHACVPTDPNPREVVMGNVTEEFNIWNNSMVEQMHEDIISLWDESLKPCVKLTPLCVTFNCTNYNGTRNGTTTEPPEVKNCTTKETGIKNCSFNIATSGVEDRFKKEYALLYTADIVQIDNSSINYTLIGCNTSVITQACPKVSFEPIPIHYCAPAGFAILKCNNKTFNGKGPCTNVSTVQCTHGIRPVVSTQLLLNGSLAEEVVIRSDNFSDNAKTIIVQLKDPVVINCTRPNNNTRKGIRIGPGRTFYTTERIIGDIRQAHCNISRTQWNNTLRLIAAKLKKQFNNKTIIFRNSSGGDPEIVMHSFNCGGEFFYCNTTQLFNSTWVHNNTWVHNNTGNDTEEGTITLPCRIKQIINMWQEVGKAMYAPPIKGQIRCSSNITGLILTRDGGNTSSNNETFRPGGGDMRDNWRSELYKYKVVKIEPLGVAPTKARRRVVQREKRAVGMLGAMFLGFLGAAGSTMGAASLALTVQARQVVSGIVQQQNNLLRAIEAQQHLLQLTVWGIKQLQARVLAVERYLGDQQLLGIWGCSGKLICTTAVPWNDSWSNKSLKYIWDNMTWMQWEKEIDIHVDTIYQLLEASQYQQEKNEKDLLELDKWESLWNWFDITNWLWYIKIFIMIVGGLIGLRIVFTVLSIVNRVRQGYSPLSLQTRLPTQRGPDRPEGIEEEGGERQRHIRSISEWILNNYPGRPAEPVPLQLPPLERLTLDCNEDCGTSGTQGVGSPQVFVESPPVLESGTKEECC

## COc1cc(/C=C2\SC(=O)N(CC(=O)Nc3cccc(C)c3)C2=O)cc([N+](=O)[O-])c1O
  IC50: 23.1 µM (active)
